Test results: ChEMBL document CHEMBL4742395, “Substituted Pyrazole Derivatives As Selective CDK12/13 Inhibitors” (2019)

Legend:
[1] = molecular target: Cyclin-dependent kinase 7 (Homo sapiens) (UniProt P50613); experiment: Binding affinity to CDK7 in human Jurkat cells assessed as target occupancy after 6 hrs by spectrophotometry; type: cell-based
[2] = molecular target: Cyclin-dependent kinase 13 (Homo sapiens, UniProt Q14004); experiment: Binding affinity to CDK13 (unknown origin) by TR-FRET assay
[3] = molecular target: T1, Cyclin-dependent kinase 12 (Homo sapiens, UniProt Q9NYV4); experiment: Inhibition of CDK12 (unknown origin) using ULight - 4E - BP1( Thr37 / Thr46 ) as substrate preincubated for 60 mins bu LANCE-TR-FRET assay
Target sequence in this assay (Q9NYV4 whole entry): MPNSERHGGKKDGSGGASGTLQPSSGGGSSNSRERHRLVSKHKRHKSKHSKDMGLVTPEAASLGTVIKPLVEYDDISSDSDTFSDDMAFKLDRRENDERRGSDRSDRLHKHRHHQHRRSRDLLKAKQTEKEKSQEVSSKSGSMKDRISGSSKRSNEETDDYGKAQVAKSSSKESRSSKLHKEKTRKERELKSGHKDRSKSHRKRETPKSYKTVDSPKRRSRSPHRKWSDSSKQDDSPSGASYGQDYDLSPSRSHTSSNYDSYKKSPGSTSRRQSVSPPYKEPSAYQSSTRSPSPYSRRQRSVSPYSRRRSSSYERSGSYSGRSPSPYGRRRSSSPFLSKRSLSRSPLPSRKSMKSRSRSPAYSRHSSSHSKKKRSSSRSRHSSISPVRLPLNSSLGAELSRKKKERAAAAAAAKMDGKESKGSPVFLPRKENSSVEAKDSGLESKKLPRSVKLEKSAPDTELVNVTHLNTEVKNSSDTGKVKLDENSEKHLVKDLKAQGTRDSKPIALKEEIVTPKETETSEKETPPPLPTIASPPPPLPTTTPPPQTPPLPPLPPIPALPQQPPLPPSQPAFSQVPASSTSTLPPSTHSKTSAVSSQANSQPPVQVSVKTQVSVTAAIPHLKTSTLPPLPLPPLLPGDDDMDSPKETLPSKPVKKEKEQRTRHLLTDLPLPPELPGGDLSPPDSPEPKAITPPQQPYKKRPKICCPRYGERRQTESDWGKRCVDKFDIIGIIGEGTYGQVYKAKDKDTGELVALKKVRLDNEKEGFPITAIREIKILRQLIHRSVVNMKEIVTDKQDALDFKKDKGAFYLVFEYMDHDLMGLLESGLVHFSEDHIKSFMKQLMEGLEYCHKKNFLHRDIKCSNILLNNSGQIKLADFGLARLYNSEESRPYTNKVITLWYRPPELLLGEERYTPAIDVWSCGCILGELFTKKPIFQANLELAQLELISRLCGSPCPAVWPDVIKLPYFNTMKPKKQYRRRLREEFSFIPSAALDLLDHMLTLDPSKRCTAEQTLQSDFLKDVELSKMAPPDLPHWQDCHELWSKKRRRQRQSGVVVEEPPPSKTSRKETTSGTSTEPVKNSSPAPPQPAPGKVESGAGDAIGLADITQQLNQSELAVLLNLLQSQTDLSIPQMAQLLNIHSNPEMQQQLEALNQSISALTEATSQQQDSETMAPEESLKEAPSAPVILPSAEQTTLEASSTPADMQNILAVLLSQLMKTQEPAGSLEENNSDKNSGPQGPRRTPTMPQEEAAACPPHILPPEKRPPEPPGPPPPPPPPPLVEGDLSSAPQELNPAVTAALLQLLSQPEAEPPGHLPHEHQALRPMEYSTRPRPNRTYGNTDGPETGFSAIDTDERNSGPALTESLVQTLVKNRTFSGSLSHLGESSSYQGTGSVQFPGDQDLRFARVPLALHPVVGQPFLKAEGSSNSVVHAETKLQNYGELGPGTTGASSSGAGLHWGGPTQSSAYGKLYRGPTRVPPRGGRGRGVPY

[4] = molecular target: T1, Cyclin-dependent kinase 12; experiment: Binding affinity to CDK12 in human Jurkat cells assessed as target occupancy after 6 hrs by spectrophotometry; type: cell-based
Target sequence in this assay (Q9NYV4 whole entry, looked up): as the sequence (Q9NYV4 whole entry) above

Homo sapiens [5] = organism: Homo sapiens; experiment: Selectivity index, ratio of IC50 for inhibition of CDK7 (unknown origin) to IC50 for inhibition of CDK12 (unknown origin)
Homo sapiens [6] = organism: Homo sapiens; experiment: Selectivity index, ratio of IC50 for inhibition of CDK7 (unknown origin) to IC50 for binding affinity to CDK13 (unknown origin)
Homo sapiens [7] = organism: Homo sapiens; experiment: Selectivity index, ratio of target occupancy for CDK7 in human Jurkat cells to target occupancy for CDK12 in human Jurkat cells; type: cell-based

Cyclin-dependent kinase 13, sequence (Q14004 whole entry): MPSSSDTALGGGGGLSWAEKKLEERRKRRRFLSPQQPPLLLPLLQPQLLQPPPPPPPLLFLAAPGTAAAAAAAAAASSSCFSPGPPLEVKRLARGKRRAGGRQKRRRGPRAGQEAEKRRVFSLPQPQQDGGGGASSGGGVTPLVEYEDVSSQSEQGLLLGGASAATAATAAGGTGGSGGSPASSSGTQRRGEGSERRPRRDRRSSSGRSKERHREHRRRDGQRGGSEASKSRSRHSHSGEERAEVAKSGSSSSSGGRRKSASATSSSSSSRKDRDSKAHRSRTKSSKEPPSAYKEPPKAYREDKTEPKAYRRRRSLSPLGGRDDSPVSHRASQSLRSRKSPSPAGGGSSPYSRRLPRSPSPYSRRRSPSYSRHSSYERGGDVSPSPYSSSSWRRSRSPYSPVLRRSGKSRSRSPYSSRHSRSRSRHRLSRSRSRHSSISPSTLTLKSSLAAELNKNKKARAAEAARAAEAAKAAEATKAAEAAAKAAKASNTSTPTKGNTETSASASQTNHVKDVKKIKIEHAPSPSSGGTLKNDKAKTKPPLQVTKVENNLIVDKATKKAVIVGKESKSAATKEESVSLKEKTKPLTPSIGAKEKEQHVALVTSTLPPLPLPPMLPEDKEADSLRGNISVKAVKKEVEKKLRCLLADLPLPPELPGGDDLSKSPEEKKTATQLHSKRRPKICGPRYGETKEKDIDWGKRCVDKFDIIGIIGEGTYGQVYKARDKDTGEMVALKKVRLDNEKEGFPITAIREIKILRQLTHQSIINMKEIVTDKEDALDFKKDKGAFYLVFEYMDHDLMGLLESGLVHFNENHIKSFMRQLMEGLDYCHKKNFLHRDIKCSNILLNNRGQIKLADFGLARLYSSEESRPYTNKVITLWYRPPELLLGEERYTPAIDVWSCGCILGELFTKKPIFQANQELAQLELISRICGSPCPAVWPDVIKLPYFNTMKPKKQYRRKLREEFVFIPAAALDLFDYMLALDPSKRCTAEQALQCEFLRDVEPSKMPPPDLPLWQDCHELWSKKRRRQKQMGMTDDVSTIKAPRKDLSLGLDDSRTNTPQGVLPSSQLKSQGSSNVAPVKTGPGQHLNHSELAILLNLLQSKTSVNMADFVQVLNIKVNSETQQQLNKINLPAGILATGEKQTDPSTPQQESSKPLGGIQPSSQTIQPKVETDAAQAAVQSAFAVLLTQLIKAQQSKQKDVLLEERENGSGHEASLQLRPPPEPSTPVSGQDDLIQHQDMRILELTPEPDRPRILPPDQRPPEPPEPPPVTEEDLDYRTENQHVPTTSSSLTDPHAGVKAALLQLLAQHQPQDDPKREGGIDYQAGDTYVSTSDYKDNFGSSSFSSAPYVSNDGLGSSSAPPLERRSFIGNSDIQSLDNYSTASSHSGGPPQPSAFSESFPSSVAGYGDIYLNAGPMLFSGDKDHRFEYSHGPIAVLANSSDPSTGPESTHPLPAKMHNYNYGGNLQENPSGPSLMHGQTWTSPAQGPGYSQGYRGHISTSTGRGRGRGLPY
Cyclin-dependent kinase 7 (Homo sapiens), sequence (P50613 whole entry): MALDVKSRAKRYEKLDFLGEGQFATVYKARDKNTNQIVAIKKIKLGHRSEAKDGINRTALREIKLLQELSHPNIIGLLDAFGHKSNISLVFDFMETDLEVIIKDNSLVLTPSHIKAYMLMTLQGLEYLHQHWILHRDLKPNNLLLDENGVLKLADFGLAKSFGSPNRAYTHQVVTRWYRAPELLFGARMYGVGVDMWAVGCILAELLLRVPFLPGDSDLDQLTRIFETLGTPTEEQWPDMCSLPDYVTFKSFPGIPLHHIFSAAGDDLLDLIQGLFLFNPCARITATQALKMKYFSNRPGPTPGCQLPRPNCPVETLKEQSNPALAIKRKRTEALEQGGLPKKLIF

Structure (SMILES)	Occ50 [1] [nM]	IC50 [2] [µM]	IC50 [3] [µM]	Occ50 [4] [µM]	Ratio IC50 (Homo sapiens [5])	Ratio IC50 (Homo sapiens [6])	Ratio (Homo sapiens [7])
C[C@H](C(=O)Nc1cc(C2CC2)[nH]n1)c1ccc(C2=CCN(C(=O)/C=C/CN(C)C)CC2)cc1	1670	–	–	–	–	–	–
C=CC(=O)N1CCC=C(c2ccc(C(C(=O)Nc3cc(C4CC4)[nH]n3)C(C)C)cc2)C1 (stereo not given)	–	0.279	0.16	–	–	–	–
CC#CC(=O)N1CCC=C(c2ccc(CC(=O)Nc3cc(C4CC4)[nH]n3)cn2)C1	–	0.005	0.037	–	–	–	–
C=CC(=O)N1CCC(c2ccc(C(C)C(=O)Nc3cc(C4CC4)[nH]n3)cn2)C1 (stereo not given)	–	0.006	0.055	–	–	–	–
CCN(CC)C/C=C/C(=O)N1CC=C(c2ccc([C@H](C)C(=O)Nc3cc(C4CC4)[nH]n3)cc2)CC1	–	0.072	0.895	–	–	–	–
C=CC(=O)N1CCC=C(c2ccc(CC(=O)Nc3cc(C4CC4)[nH]n3)cn2)C1	–	0.004	0.023	0.016	75.2	432	–
C=CC(=O)N1CC=C(c2ccc(CC(=O)Nc3cc(C4CC4)[nH]n3)cn2)CC1	–	0.019	0.04	0.025	–	–	–
CC(C(=O)Nc1cc(C2CC2)[nH]n1)c1cccc(C2CCN(C(=O)/C=C/CN(C)C)CC2)c1 (stereo not given)	130	–	–	0.305	–	–	0.425
